# Measured values reported in publication PMC6591251, “Discovery of potent necroptosis inhibitors targeting RIPK1 kinase activity for the treatment of inflammatory disorder and cancer metastasis” (Cell Death & Disease, 2019).
# How the values were obtained:
# Assay in all cases: RBC kinase panel
# Assay type in all cases: biochemical
# FGFR1 = molecular target: T1, FGFR1 (Homo sapiens, UniProt P11362); settings: ATP 10 μM, Data1, Data2
# T1 construct: purchased Reaction Biology Corporation
# How it was run: (§1)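 Single-point screen: 1 μM compound, duplicate wells, 369-kinase human panel, ATP fixed at 10 μM.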
# CK1g3 = molecular target: T2, CK1g3 (Homo sapiens, UniProt Q9Y6M4); settings: ATP 10 μM, Data1, Data2
# T2 construct: purchased Reaction Biology Corporation
# How it was run: as §1
# CDK16/cyclin Y (PCTAIRE) = molecular target: T3, CDK16/cyclin Y (PCTAIRE) (Homo sapiens, UniProt Q00536); settings: ATP 10 μM, Data1, Data2
# T3 construct: purchased Reaction Biology Corporation
# How it was run: as §1
# CAMK2a = molecular target: T4, CAMK2a (Homo sapiens, UniProt Q9UQM7); settings: ATP 10 μM, Data1, Data2
# T4 construct: purchased Reaction Biology Corporation
# How it was run: as §1
# ERK2/MAPK1 = molecular target: T5, ERK2/MAPK1 (Homo sapiens, UniProt P28482); settings: ATP 10 μM, Data1, Data2
# T5 construct: purchased Reaction Biology Corporation
# How it was run: as §1
# BTK = molecular target: T6, BTK (Homo sapiens, UniProt Q06187); settings: ATP 10 μM, Data1, Data2
# T6 construct: purchased Reaction Biology Corporation
# How it was run: as §1
# EPHA3 = molecular target: T7, EPHA3 (Homo sapiens, UniProt P29320); settings: ATP 10 μM, Data1, Data2
# T7 construct: purchased Reaction Biology Corporation
# How it was run: as §1
# CDK14/cyclin Y (PFTK1) = molecular target: T8, CDK14/cyclin Y (PFTK1) (Homo sapiens, UniProt O94921); settings: ATP 10 μM, Data1, Data2
# T8 construct: purchased Reaction Biology Corporation
# How it was run: as §1
# FLT4/VEGFR3 = molecular target: T9, FLT4/VEGFR3 (Homo sapiens, UniProt P35916); settings: ATP 10 μM, Data1, Data2
# T9 construct: purchased Reaction Biology Corporation
# How it was run: as §1
# MEK2 = molecular target: T10, MEK2 (Homo sapiens, UniProt P36507); settings: ATP 10 μM, Data1, Data2
# T10 construct: purchased Reaction Biology Corporation
# How it was run: as §1
# STK22D/TSSK1 = molecular target: T11, STK22D/TSSK1 (Homo sapiens, UniProt Q9BXA7); settings: ATP 10 μM, Data1, Data2
# T11 construct: purchased Reaction Biology Corporation
# How it was run: as §1
# P38b/MAPK11 = molecular target: T12, P38b/MAPK11 (Homo sapiens, UniProt Q15759); settings: ATP 10 μM, Data1, Data2
# T12 construct: purchased Reaction Biology Corporation
# How it was run: as §1
# BMX/ETK = molecular target: T13, BMX/ETK (Homo sapiens, UniProt P51813); settings: ATP 10 μM, Data1, Data2
# T13 construct: purchased Reaction Biology Corporation
# How it was run: as §1
# TESK1 = molecular target: T14, TESK1 (Homo sapiens, UniProt Q15569); settings: ATP 10 μM, Data1, Data2
# T14 construct: purchased Reaction Biology Corporation
# How it was run: as §1
# CAMK4 = molecular target: T15, CAMK4 (Homo sapiens, UniProt Q16566); settings: ATP 10 μM, Data1, Data2
# T15 construct: purchased Reaction Biology Corporation
# How it was run: as §1
# MEKK3 = molecular target: T16, MEKK3 (Homo sapiens, UniProt Q99759); settings: ATP 10 μM, Data1, Data2
# T16 construct: purchased Reaction Biology Corporation
# How it was run: as §1
# PKD2/PRKD2 = molecular target: T17, PKD2/PRKD2 (Homo sapiens, UniProt Q9BZL6); settings: ATP 10 μM, Data1, Data2
# T17 construct: purchased Reaction Biology Corporation
# How it was run: as §1
# NEK8 = molecular target: T18, NEK8 (Homo sapiens, UniProt Q86SG6); settings: ATP 10 μM, Data1, Data2
# T18 construct: purchased Reaction Biology Corporation
# How it was run: as §1
# MKK7 = molecular target: T19, MKK7 (Homo sapiens, UniProt O14733); settings: ATP 10 μM, Data1, Data2
# T19 construct: purchased Reaction Biology Corporation
# How it was run: as §1
# CDK7/cyclin H = molecular target: T20, CDK7/cyclin H (Homo sapiens, UniProt P50613); settings: ATP 10 μM, Data1, Data2
# T20 construct: purchased Reaction Biology Corporation
# How it was run: as §1
# NEK6 = molecular target: T21, NEK6 (Homo sapiens, UniProt Q9HC98); settings: ATP 10 μM, Data1, Data2
# T21 construct: purchased Reaction Biology Corporation
# How it was run: as §1
# PIM3 = molecular target: T22, PIM3 (Homo sapiens, UniProt Q86V86); settings: ATP 10 μM, Data1, Data2
# T22 construct: purchased Reaction Biology Corporation
# How it was run: as §1
# TRKC = molecular target: T23, TRKC (Homo sapiens, UniProt Q16288)
# T23 construct: purchased Reaction Biology Corporation
# How it was run: as §1
# TSSK3/STK22C = molecular target: T24, TSSK3/STK22C (Homo sapiens, UniProt Q96PN8); settings: ATP 10 μM, Data1, Data2
# T24 construct: purchased Reaction Biology Corporation
# How it was run: as §1
# c-MER = molecular target: T25, c-MER (Homo sapiens, UniProt Q12866); settings: ATP 10 μM, Data1, Data2
# T25 construct: purchased Reaction Biology Corporation
# How it was run: as §1
# WNK3 = molecular target: T26, WNK3 (Homo sapiens, UniProt Q9BYP7); settings: ATP 10 μM, Data1, Data2
# T26 construct: purchased Reaction Biology Corporation
# How it was run: as §1
# ERBB2/HER2 = molecular target: T27, ERBB2/HER2 (Homo sapiens, UniProt P04626); settings: ATP 10 μM, Data1, Data2
# T27 construct: purchased Reaction Biology Corporation
# How it was run: as §1
# HIPK3 = molecular target: T28, HIPK3 (Homo sapiens, UniProt Q9H422); settings: ATP 10 μM, Data1, Data2
# T28 construct: purchased Reaction Biology Corporation
# How it was run: as §1
# VRK1 = molecular target: T29, VRK1 (Homo sapiens, UniProt Q99986); settings: ATP 10 μM, Data1, Data2
# T29 construct: purchased Reaction Biology Corporation
# How it was run: as §1
# GRK7 = molecular target: T30, GRK7 (Homo sapiens, UniProt Q8WTQ7); settings: ATP 10 μM, Data1, Data2
# T30 construct: purchased Reaction Biology Corporation
# How it was run: as §1
# PAK6 = molecular target: T31, PAK6 (Homo sapiens, UniProt Q9NQU5); settings: ATP 10 μM, Data1, Data2
# T31 construct: purchased Reaction Biology Corporation
# How it was run: as §1
# PASK = molecular target: T32, PASK (Homo sapiens, UniProt Q96RG2); settings: ATP 10 μM, Data1, Data2
# T32 construct: purchased Reaction Biology Corporation
# How it was run: as §1
# T23 sequence (Q16288 32-839): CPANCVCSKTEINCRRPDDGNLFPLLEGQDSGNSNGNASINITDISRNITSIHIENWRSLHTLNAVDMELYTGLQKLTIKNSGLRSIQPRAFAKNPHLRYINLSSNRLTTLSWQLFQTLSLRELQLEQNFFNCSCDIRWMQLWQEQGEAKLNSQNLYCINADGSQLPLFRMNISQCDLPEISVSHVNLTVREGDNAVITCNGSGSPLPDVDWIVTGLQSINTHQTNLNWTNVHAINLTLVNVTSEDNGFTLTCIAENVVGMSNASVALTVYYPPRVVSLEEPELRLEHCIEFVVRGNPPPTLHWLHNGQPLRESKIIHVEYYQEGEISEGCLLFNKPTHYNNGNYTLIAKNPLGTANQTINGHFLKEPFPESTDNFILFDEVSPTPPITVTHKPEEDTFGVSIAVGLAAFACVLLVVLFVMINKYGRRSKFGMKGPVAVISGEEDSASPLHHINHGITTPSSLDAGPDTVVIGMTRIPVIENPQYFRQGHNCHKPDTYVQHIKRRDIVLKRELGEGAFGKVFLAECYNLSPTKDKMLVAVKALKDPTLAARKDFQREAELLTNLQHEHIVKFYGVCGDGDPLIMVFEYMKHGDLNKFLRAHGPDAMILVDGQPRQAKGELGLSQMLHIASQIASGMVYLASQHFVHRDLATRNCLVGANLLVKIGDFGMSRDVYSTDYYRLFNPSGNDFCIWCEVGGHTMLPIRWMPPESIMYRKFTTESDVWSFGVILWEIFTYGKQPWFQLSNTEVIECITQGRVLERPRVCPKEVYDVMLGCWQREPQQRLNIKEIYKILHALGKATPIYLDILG
# T29 sequence (Q99986 whole entry): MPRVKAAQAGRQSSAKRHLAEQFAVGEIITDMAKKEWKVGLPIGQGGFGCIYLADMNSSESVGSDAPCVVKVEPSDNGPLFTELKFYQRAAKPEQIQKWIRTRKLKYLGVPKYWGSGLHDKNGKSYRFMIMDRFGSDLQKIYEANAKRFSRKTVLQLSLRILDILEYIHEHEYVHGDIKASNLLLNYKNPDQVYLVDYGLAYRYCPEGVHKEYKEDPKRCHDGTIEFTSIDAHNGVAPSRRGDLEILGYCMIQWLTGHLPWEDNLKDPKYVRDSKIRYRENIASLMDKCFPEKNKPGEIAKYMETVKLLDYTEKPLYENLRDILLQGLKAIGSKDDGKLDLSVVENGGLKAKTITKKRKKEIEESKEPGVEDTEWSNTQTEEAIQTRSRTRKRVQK
# T26 sequence (Q9BYP7 whole entry): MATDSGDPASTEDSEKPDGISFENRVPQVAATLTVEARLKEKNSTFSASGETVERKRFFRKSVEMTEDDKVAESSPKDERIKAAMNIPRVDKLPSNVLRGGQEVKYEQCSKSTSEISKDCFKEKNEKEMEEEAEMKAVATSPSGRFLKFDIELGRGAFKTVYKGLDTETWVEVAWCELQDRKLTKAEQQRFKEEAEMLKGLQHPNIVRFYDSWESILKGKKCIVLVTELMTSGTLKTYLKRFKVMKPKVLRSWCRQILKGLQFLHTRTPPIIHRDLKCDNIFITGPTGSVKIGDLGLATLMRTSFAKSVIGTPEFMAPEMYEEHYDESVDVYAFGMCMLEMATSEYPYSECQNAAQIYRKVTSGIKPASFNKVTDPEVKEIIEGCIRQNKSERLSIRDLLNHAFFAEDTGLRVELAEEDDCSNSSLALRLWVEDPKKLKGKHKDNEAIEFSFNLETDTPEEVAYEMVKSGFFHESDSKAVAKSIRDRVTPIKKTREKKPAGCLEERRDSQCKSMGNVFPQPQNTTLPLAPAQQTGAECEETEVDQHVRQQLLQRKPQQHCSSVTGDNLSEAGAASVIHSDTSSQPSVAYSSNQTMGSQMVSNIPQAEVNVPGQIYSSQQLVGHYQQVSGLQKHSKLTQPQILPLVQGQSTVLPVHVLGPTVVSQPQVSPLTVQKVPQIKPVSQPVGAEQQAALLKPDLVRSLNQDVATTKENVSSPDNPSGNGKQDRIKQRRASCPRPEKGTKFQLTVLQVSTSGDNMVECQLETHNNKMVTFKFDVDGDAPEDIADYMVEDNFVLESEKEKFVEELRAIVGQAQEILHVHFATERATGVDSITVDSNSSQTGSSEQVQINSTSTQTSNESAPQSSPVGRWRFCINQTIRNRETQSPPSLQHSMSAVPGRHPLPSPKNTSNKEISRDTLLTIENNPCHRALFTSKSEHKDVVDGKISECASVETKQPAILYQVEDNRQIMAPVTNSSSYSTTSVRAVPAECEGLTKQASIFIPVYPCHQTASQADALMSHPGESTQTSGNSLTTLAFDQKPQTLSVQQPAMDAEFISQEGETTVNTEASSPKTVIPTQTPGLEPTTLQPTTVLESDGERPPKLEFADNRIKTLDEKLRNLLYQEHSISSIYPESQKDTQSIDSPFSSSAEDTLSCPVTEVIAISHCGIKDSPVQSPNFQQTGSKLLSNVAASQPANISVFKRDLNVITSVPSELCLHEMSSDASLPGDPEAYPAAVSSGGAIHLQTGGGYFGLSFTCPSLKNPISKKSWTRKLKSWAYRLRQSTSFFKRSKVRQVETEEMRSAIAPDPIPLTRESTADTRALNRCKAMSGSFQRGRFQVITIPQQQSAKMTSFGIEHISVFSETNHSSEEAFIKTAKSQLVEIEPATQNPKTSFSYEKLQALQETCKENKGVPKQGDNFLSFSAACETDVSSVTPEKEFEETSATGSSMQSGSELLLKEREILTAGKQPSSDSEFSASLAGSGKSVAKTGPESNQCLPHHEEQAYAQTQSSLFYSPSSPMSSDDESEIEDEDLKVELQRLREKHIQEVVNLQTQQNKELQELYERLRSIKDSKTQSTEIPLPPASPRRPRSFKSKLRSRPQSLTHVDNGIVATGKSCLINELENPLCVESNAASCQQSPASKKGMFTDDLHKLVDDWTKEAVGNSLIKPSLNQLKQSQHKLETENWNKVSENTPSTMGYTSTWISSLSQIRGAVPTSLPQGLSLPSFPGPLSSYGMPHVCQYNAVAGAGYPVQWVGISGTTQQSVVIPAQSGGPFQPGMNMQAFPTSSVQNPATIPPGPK
# T28 sequence (Q9H422 whole entry): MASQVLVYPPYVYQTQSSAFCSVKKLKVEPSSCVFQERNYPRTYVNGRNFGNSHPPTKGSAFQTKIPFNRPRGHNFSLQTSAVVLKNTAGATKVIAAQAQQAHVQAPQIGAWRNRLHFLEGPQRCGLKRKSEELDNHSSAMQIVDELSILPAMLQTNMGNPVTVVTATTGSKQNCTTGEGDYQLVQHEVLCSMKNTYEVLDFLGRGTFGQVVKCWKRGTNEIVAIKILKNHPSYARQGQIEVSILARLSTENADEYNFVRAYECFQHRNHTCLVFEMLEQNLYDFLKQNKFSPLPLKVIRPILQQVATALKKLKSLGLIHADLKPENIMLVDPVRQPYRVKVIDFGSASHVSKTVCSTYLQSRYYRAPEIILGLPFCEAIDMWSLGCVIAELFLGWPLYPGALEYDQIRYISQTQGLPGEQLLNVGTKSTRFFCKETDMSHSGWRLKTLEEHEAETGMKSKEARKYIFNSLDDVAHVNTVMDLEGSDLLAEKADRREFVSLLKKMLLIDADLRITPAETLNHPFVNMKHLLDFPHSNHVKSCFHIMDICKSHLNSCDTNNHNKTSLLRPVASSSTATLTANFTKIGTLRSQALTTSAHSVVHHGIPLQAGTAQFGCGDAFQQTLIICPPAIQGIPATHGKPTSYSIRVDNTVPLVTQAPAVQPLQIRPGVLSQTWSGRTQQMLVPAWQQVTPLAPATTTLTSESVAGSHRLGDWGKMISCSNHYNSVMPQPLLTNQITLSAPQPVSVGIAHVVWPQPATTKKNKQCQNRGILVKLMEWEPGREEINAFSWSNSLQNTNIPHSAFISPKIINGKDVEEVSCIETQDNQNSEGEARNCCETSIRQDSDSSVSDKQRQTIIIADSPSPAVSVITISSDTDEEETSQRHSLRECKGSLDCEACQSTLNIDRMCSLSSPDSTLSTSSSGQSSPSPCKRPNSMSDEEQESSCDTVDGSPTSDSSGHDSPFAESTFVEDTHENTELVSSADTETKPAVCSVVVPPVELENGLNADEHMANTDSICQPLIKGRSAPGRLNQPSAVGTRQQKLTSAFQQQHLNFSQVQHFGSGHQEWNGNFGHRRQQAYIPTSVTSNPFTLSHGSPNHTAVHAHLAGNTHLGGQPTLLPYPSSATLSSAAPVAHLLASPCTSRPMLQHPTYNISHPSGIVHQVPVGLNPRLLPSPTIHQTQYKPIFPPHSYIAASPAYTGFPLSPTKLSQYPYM
# T6 sequence (Q06187 whole entry): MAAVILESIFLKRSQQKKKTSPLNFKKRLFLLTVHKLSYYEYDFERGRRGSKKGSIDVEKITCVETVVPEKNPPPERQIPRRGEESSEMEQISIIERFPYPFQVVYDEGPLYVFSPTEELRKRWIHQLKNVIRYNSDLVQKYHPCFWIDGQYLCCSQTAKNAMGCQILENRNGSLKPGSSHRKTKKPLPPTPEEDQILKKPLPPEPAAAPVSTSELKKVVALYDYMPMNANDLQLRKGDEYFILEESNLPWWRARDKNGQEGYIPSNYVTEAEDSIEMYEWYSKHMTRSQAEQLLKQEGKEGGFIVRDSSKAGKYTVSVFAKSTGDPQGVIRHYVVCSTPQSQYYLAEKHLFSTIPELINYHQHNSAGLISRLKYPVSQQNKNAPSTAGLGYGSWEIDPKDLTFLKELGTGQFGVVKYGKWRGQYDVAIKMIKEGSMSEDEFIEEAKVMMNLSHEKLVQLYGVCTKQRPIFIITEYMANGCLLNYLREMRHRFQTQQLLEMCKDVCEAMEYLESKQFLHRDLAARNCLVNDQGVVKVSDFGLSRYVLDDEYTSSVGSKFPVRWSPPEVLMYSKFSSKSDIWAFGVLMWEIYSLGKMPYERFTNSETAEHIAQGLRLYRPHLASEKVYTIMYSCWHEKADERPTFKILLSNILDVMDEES
smiles,measurement,setting,value
"CC(=O)Nc1nc2ccc(-c3cnc(C)c(NC(=O)OC4CCCCC4)c3)cc2s1 [PK68, cyclohexyl (5-(2-acetamidobenzo[d]thiazol-6-yl)-2-methylpyridin-3-yl)carbamate]",Activity%,FGFR1; 1 μM,104.83%
same,activity at 1 µM,FGFR1,105%
same,Activity%,CK1g3; 1 μM,87.02%
same,activity at 1 µM,CK1g3,87.1%
same,Activity%,CDK16/cyclin Y (PCTAIRE); 1 μM,96.14%
same,activity at 1 µM,CDK16/cyclin Y (PCTAIRE),99.2%
same,Activity%,CAMK2a; 1 μM,99.17%
same,activity at 1 µM,CAMK2a,100%
same,Activity%,ERK2/MAPK1; 1 μM,92.60%
same,activity at 1 µM,ERK2/MAPK1,96.9%
same,Activity%,BTK; 1 μM,90.38%
same,activity at 1 µM,BTK,91.2%
same,Activity%,EPHA3; 1 μM,98.26%
same,activity at 1 µM,EPHA3,102%
same,Activity%,CDK14/cyclin Y (PFTK1); 1 μM,96.97%
same,activity at 1 µM,CDK14/cyclin Y (PFTK1),97.4%
same,Activity%,FLT4/VEGFR3; 1 μM,90.37%
same,activity at 1 µM,FLT4/VEGFR3,91%
same,Activity%,MEK2; 1 μM,97.14%
same,activity at 1 µM,MEK2,97.2%
same,Activity%,STK22D/TSSK1; 1 μM,103.75%
same,activity at 1 µM,STK22D/TSSK1,104%
same,Activity%,P38b/MAPK11; 1 μM,102.60%
same,activity at 1 µM,P38b/MAPK11,103%
same,Activity%,BMX/ETK; 1 μM,99.71%
same,activity at 1 µM,BMX/ETK,99.9%
same,Activity%,TESK1; 1 μM,111.93%
same,activity at 1 µM,TESK1,118%
same,Activity%,CAMK4; 1 μM,84.49%
same,activity at 1 µM,CAMK4,84.8%
same,Activity%,MEKK3; 1 μM,111.45%
same,activity at 1 µM,MEKK3,115%
same,Activity%,PKD2/PRKD2; 1 μM,90.63%
same,activity at 1 µM,PKD2/PRKD2,93.9%
same,Activity%,NEK8; 1 μM,79.27%
same,activity at 1 µM,NEK8,79.9%
same,Activity%,MKK7; 1 μM,93.03%
same,activity at 1 µM,MKK7,98%
same,Activity%,CDK7/cyclin H; 1 μM,87.73%
same,activity at 1 µM,CDK7/cyclin H,89.2%
same,Activity%,NEK6; 1 μM,93.63%
same,activity at 1 µM,NEK6,98.4%
same,Activity%,PIM3; 1 μM,101.62%
same,activity at 1 µM,PIM3,104%
same,Activity%,"TRKC; 1 μM, ATP 10 μM, Data1, Data2",33.96%
same,activity at 1 µM,"TRKC; 1 μM, ATP 10 μM, Data1, Data2",35.4%
same,inhibition at 1 µM,TRKC; at 1000 nM,> 50%
same,Activity%,TSSK3/STK22C; 1 μM,103.77%
same,activity at 1 µM,TSSK3/STK22C,104%
same,Activity%,c-MER; 1 μM,84.20%
same,activity at 1 µM,c-MER,86%
same,Activity%,WNK3; 1 μM,106.32%
same,activity at 1 µM,WNK3,107%
same,Activity%,ERBB2/HER2; 1 μM,97.32%
same,activity at 1 µM,ERBB2/HER2,99.1%
same,Activity%,HIPK3; 1 μM,63.99%
same,activity at 1 µM,HIPK3,66.4%
same,Activity%,VRK1; 1 μM,104.78%
same,activity at 1 µM,VRK1,105%
same,Activity%,GRK7; 1 μM,95.94%
same,activity at 1 µM,GRK7,96.5%
same,Activity%,PAK6; 1 μM,92.62%
same,activity at 1 µM,PAK6,93.6%
same,Activity%,PASK; 1 μM,91.47%
same,activity at 1 µM,PASK,93%
